Data reported in PubChem BioAssay (NCI).
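These data come from cells grown in 96-well plates and exposed to compound for 48 hours at five concentrations. GI50: concentration for 50% inhibition of growth. TGI: concentration producing complete growth inhibition.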

Legend:
Assay in all cases: inhibition of tumour cell growth, NCI panel, 48 h
[1] = system: T-47D breast
[2] = system: SN12C renal
[3] = system: M14 melanoma
[4] = system: SW-620 colon
[5] = system: RXF 393 renal
[6] = system: OVCAR-3 ovarian
[7] = system: CCRF-CEM leukemia
[8] = system: DU-145 prostate
[9] = system: COLO 205 colon
[10] = system: U251 CNS
[11] = system: OVCAR-5 ovarian
[12] = system: SR leukemia
[13] = system: MOLT-4 leukemia
[14] = system: KM12 colon
[15] = system: MDA-MB-435
[16] = system: ACHN renal
[17] = system: SK-OV-3 ovarian
[18] = system: A549 NSCLC
[19] = system: EKVX NSCLC
[20] = system: NCI-H23 lung
[21] = system: K-562 leukemia
[22] = system: MDA-MB-231 breast
[23] = system: RPMI-8226 leukemia
[24] = system: MCF7 breast
[25] = system: SF-539 CNS
[26] = system: HS 578T breast
[27] = system: TK-10 renal
[28] = system: SK-MEL-2 melanoma
[29] = system: UACC-62 melanoma
[30] = system: SF-295 CNS
[31] = system: SK-MEL-28 melanoma
[32] = system: OVCAR-4 ovarian
[33] = system: A498 renal
[34] = system: SK-MEL-5 melanoma
[35] = system: HCT-15 colon
[36] = system: HCT-116 colon
[37] = system: HOP-92 NSCLC
[38] = system: SNB-19 CNS
[39] = system: NCI-H522 lung
[40] = system: OVCAR-8 ovarian
[41] = system: MALME-3M melanoma
[42] = system: PC-3 prostate
[43] = system: 786-0 renal
[44] = system: LOX IMVI melanoma
[45] = system: HL-60(TB) leukemia
[46] = system: IGROV1 ovarian
[47] = system: UO-31 renal
[48] = system: CAKI-1 renal
[49] = system: HT29 colon
[50] = system: SF-268 CNS
[51] = system: SNB-75 CNS
[52] = system: HCC-2998 colon
[53] = system: NCI/ADR-RES ovarian
[54] = system: UACC-257 melanoma
[55] = system: BT-549 breast
[56] = system: NCI-H226 lung
[57] = system: NCI-H460 lung
[58] = system: HOP-62 NSCLC

Which GI50 [1] does the source give for `Cc1cnc(-c2ccc(-c3ccc(NC(=O)Nc4cccc(C(F)(F)F)c4)cc3F)c3c2C(=O)NC3)[nH]1` here?
The GI50 was 12.7 µM.

What about the TGI [1] of the same compound?
The TGI was 33.5 µM.

And the GI50 [2]?
Its GI50 is 0.304 µM.

And the TGI [2]?
The TGI was 35.3 µM.

What about the GI50 [3] of the same compound?
Its GI50 is 0.624 µM.

What about the TGI [3] of the same compound?
Its TGI is 32.9 µM.

And the GI50 [4]?
Its GI50 is 0.081 µM.

And the TGI [4]?
Its TGI is 17.4 µM.

What about the GI50 [5] of the same compound?
Its GI50 is 2.42 µM.

What about the TGI [5] of the same compound?
The TGI was 21.3 µM.

And the GI50 [6]?
Its GI50 is 14.4 µM.

What about the TGI [6] of the same compound?
The TGI was 36.7 µM.

What about the GI50 [7] of the same compound?
Its GI50 is 1.31 µM.

What about the TGI [7] of the same compound?
The TGI was 18.7 µM.

And the GI50 [8]?
Its GI50 is 11.5 µM.

What about the TGI [8] of the same compound?
Its TGI is 35.6 µM.

What about the GI50 [9] of the same compound?
The GI50 was 0.0469 µM.

What about the TGI [9] of the same compound?
Its TGI is 20.2 µM.

What about the GI50 [10] of the same compound?
Its GI50 is 11.3 µM.

And the TGI [10]?
The TGI was 32 µM.

And the GI50 [11]?
The GI50 was 28.4 µM.

What about the TGI [11] of the same compound?
The TGI was greater than 59.8 µM.

What about the GI50 [12] of the same compound?
The GI50 was 0.0862 µM.

And the TGI [12]?
Its TGI is greater than 59.9 µM.

And the GI50 [13]?
Its GI50 is 1.37 µM.

And the TGI [13]?
Its TGI is greater than 53.4 µM.

What about the GI50 [14] of the same compound?
The GI50 was less than 0.01 µM.

And the TGI [14]?
The TGI was 16.2 µM.

What about the GI50 [15] of the same compound?
Its GI50 is 12.6 µM.

And the TGI [15]?
The TGI was greater than 47.5 µM.

What about the GI50 [16] of the same compound?
Its GI50 is 1.97 µM.

And the TGI [16]?
The TGI was greater than 52.8 µM.

What about the GI50 [17] of the same compound?
Its GI50 is 6.97 µM.

What about the TGI [17] of the same compound?
Its TGI is 39.7 µM.

What about the GI50 [18] of the same compound?
The GI50 was 7.49 µM.

And the TGI [18]?
Its TGI is greater than 47.9 µM.

What about the GI50 [19] of the same compound?
Its GI50 is 26 µM.

And the TGI [19]?
Its TGI is greater than 50.6 µM.

And the GI50 [20]?
Its GI50 is 4.42 µM.

And the TGI [20]?
The TGI was 33.5 µM.

What about the GI50 [21] of the same compound?
The GI50 was 1.43 µM.

And the TGI [21]?
Its TGI is 31.9 µM.

What about the GI50 [22] of the same compound?
The GI50 was 26 µM.

What about the TGI [22] of the same compound?
Its TGI is greater than 57.3 µM.

What about the GI50 [23] of the same compound?
Its GI50 is 10.7 µM.

What about the TGI [23] of the same compound?
The TGI was 52.3 µM.

What about the GI50 [24] of the same compound?
Its GI50 is 2.04 µM.

And the TGI [24]?
The TGI was 25.3 µM.

What about the GI50 [25] of the same compound?
Its GI50 is 0.251 µM.

And the TGI [25]?
Its TGI is 22.7 µM.

What about the GI50 [26] of the same compound?
The GI50 was 2.46 µM.

What about the TGI [26] of the same compound?
Its TGI is 35.4 µM.

What about the GI50 [27] of the same compound?
Its GI50 is 15.5 µM.

What about the TGI [27] of the same compound?
Its TGI is greater than 58.5 µM.

What about the GI50 [28] of the same compound?
The GI50 was 14.9 µM.

And the TGI [28]?
Its TGI is 36.8 µM.

And the GI50 [29]?
The GI50 was 9.61 µM.

What about the TGI [29] of the same compound?
Its TGI is 35.5 µM.

What about the GI50 [30] of the same compound?
The GI50 was 4.06 µM.

And the TGI [30]?
The TGI was 33.6 µM.

And the GI50 [31]?
Its GI50 is 11.5 µM.

What about the TGI [31] of the same compound?
The TGI was 37.7 µM.

What about the GI50 [32] of the same compound?
Its GI50 is 8.96 µM.

What about the TGI [32] of the same compound?
The TGI was 23.8 µM.

And the GI50 [33]?
The GI50 was 0.115 µM.

And the TGI [33]?
The TGI was 3.13 µM.

And the GI50 [34]?
The GI50 was 23.6 µM.

And the TGI [34]?
The TGI was greater than 65.6 µM.

What about the GI50 [35] of the same compound?
The GI50 was 6.19 µM.

What about the TGI [35] of the same compound?
Its TGI is 33.6 µM.

And the GI50 [36]?
The GI50 was 0.548 µM.

And the TGI [36]?
Its TGI is 23.8 µM.

And the GI50 [37]?
Its GI50 is 0.438 µM.

And the TGI [37]?
The TGI was 28.6 µM.

What about the GI50 [38] of the same compound?
Its GI50 is 17.4 µM.

And the TGI [38]?
The TGI was greater than 53.4 µM.

What about the GI50 [39] of the same compound?
Its GI50 is 15.4 µM.

What about the TGI [39] of the same compound?
The TGI was 42.7 µM.

And the GI50 [40]?
Its GI50 is 14.6 µM.

And the TGI [40]?
Its TGI is greater than 57.8 µM.

And the GI50 [41]?
The GI50 was 1.47 µM.

What about the TGI [41] of the same compound?
Its TGI is 23.1 µM.

What about the GI50 [42] of the same compound?
Its GI50 is 15.7 µM.

And the TGI [42]?
The TGI was greater than 50.6 µM.

What about the GI50 [43] of the same compound?
Its GI50 is 16.8 µM.

What about the TGI [43] of the same compound?
Its TGI is greater than 51.8 µM.

What about the GI50 [44] of the same compound?
The GI50 was 0.357 µM.

And the TGI [44]?
Its TGI is 17.7 µM.

And the GI50 [45]?
Its GI50 is 43.4 µM.

What about the TGI [45] of the same compound?
Its TGI is greater than 100 µM.

What about the GI50 [46] of the same compound?
Its GI50 is 1.97 µM.

What about the TGI [46] of the same compound?
The TGI was 32.2 µM.

What about the GI50 [47] of the same compound?
The GI50 was 3 µM.

And the TGI [47]?
Its TGI is greater than 50.5 µM.

What about the GI50 [48] of the same compound?
Its GI50 is 2.18 µM.

And the TGI [48]?
Its TGI is greater than 44.9 µM.

What about the GI50 [49] of the same compound?
Its GI50 is 0.853 µM.

What about the TGI [49] of the same compound?
The TGI was greater than 44.7 µM.

What about the GI50 [50] of the same compound?
The GI50 was 11.4 µM.

What about the TGI [50] of the same compound?
Its TGI is greater than 48.1 µM.

And the GI50 [51]?
The GI50 was 1.29 µM.

What about the TGI [51] of the same compound?
The TGI was 25.5 µM.

What about the GI50 [52] of the same compound?
Its GI50 is 28.2 µM.

What about the TGI [52] of the same compound?
The TGI was greater than 59.2 µM.

And the GI50 [53]?
Its GI50 is 31.4 µM.

And the TGI [53]?
Its TGI is greater than 100 µM.

And the GI50 [54]?
Its GI50 is 13.5 µM.

What about the TGI [54] of the same compound?
The TGI was greater than 66 µM.

What about the GI50 [55] of the same compound?
The GI50 was 10.8 µM.

What about the TGI [55] of the same compound?
Its TGI is 49.1 µM.

And the GI50 [56]?
The GI50 was 0.933 µM.

What about the TGI [56] of the same compound?
The TGI was greater than 42.7 µM.

And the GI50 [57]?
Its GI50 is 0.304 µM.

And the TGI [57]?
Its TGI is 26.8 µM.

What about the GI50 [58] of the same compound?
Its GI50 is 3.55 µM.

What about the TGI [58] of the same compound?
Its TGI is greater than 50 µM.
